For series [1], the system named is MCF-7 cells. The experiment in a line: MTT cell viability assay. Type of series: cell-based. The settings on record: Homo sapiens, MCF7, 24 h, read-out: concentration for 50% growth inhibition (IC50). The protocol:
(§1) To determine the concentration of rolipram required for 50% growth inhibition (IC50) of MCF-7 and MDA-MB-231 cells, MTT (3-[4,5-dimethylthiazol-2-yl]-2,5 diphenyl tetrazolium bromide) assay, which relies on the reduction of MTT to form purple-colored formazan crystals by mitochondrial dehydrogenases, was performed ([27]). Cells were seeded in a 96-well plate at a density of 3 × 10^3 cells/well and treated with increasing concentrations of rolipram ranging from 1 to 80 μM. MTT (G Biosciences; catalog no.: RC1130) was added after 24 h of treatment, formazan crystals were dissolved in 100 μl of DMSO, and absorbance measured at 595 nm using the BioRad iMark Microplate Reader (RRID: SCR_023799). The percentage of metabolically active cells was calculated with respect to untreated control cells, negating the blank reading. Graphs were plotted for the percentages of viable cells against the concentrations of rolipram to obtain linear trend-line equations, which were used to derive the IC50 concentration of rolipram for each cell lines. The IC50 doses were used for all subsequent experiments ([28]).

Series [2] concerns MDA-MB-231 cells. The experiment in a line: MTT cell viability assay. Type of series: cell-based. Particulars: Homo sapiens, 24 h, read-out: concentration for 50% growth inhibition (IC50). The protocol: as §1
Series [3] relates to MCF-7 cells. The experiment in a line: Wound healing assay. The series is classed as cell-based, human. The protocol:
(§2) Cells were seeded and allowed to attain a 2D monolayer of cells. […] The percentage of open area was evaluated using Tscratch software (CSElab, Koumoutsakos group at ETH Zurich, https://github.com/cselab/TScratch) (RRID: SCR_014282).

For series [4], the system named is MDA-MB-231 cells. The experiment in a line: Wound healing assay. The series is classed as cell-based, human. The protocol:
as §2

For a further series, the system named is PKA. The experiment in a line: Immunohistochemistry of tumor tissue, PKA. The series is classed as in vivo, BALB/c mice. How it is done:
(§3) Solid tumors were developed in BALB/c mice (n = 3) except the control group (group I) by injecting 1 × 10^4 viable 4T1 (RRID: CVCL_0125) mice breast carcinoma cells (resuspended in 50 μl of PBS) into the inguinal fourth mammary fat pad, and the tumor was allowed to develop for 14 days ([37], [38]). Mice were randomly divided into three groups, viz., untreated tumor (group II), mice treated intraperitoneally with 1 mg//kg bodyweight of rolipram (group III), and mice receiving 5 mg/kg bodyweight of rolipram, intraperitoneally (group IV) ([39], [40]). After 14 days, the mice were sacrificed. Lung, kidney, liver, serum, and the tumors were collected for further experiments ([15]).
Mice mammary fat pad and mammary tumor tissues were processed as for histology, and 5 μm-thick sections were mounted on glass slides. The tissue sections were deparaffinized with xylene and hydrated with […] grades of alcohols (100% to 70%). Rehydrated sections were equilibrated in PBS. Antigen retrieval was performed by boiling the sections in a 0.1 M sodium citrate buffer (pH 6.0) for 10 min. […] The frequency (cell count) of positive and negative cells as well as the mean absorbance of the positive cells were plotted using MatPlotLib (RRID: SCR_008624), a Python (RRID: SCR_008394) 2D plotting library.

The nature of series [5]: Bodyweight of tumor-bearing mice. The series is classed as in vivo, BALB/c mice. The settings on record: intraperitoneally. The protocol:
as §3

The nature of series [6]: Histological analysis of liver of tumor-bearing mice. Type of series: in vivo, BALB/c mice. Particulars: rolipram-treated tumor-bearing mice; dilation observed in untreated tumor-bearing mice. The protocol: as §3
Tissue samples of mammary tissue, lung, kidney, and liver from each group of mice were fixed in Bouin’s solution (Sigma–Aldrich; catalog no.: HT10132), dehydrated in graded alcohol, and embedded in paraffin wax. Thin sections (5 μm) of tissues were mounted on glass slides and stained with hematoxylin (Sigma–Aldrich; catalog no.: H3136), following rehydration with graded alcohol. The samples were again dehydrated with graded alcohol and stained with eosin and mounted with Dystyrene Plasticizer Xylene ([42]). […] For quantifying the number of cells in a unit area of histological section of lung, each section image was divided into 12 equal parts (dimensions: 480 px × 400 px). […]

In the case of `COc1ccc(C2CNC(=O)C2)cc1OC1CCCC1` (centres unmarked) [rolipram, Rolipram], the figures for the IC50 with MCF-7 cells [1] and with MDA-MB-231 cells [2] were 38 µM and 53 µM, respectively. The “percentage of open area (wound)” value with MCF-7 cells [3] (MCF-7, IC50 dose, up to 48 h, untreated 45% to 34% (24 h) and 22% (48 h)) was “failed to significantly reduce the percentage of open area”; in the series on MDA-MB-231 cells [4] (MDA-MB-231, IC50 dose, 24 and 48 h, untreated 33% to 20% and 12%) it was “no significant change”. Besides, the cell migration capability entry with MCF-7 cells [3] (MCF-7, in the presence of TAK-243 (0.1 μM)) was “failed to retard the cell migration capability”; in the series with MDA-MB-231 cells [4] (MDA-MB-231, in the presence of TAK-243 (0.1 μM)), “failed to retard the cell migration capability”. In addition, the “increase of PKA-positive cells compared with tumor tissues” value in the series on PKA (1 mg/kg bodyweight) and in the series on PKA (5 mg/kg bodyweight) was around 1.5 fold each time. The “bodyweight of tumor-bearing mice” value in series [5] (1 mg/kg bodyweight) and in series [5] (5 mg/kg bodyweight) was “No significant changes” each time. Also, in series [6], the hepatic vein dilation entry is “not evident”.

The record behind these values is article PMC11879692, “PDE4 inhibitor rolipram represses hedgehog signaling via ubiquitin-mediated proteolysis of GLI transcription factors to regress breast cancer” (The Journal of Biological Chemistry, 2025).
